Test results taken from patent US10711041B2, “Lyophilisate containing a cyclic peptide of formula X1-[sequence]-X2” (priority 2013, dated 2020).

Assay: Aerosol droplet size characterisation (laser diffraction / impactor)
Type: physicochemical
Source text: By means of a nebulizer which converts aqueous solution into an aerosol, also the aqueous solutions of the cyclic peptides of amino acid sequence SEQ ID NO:1 to SEQ ID NO:6 may be converted into aerosols. Such aerosols can be characterized with respect to the medium droplet size, as well as to size distribution of the aerosol droplets. For that conventional methods are used, which are described also in pharmacopoeias. The one analytical method uses the cascade impactor in its actual construction, the “Next Generation Impactor”. Thereby the aerosol is conducted through a series of sieve plates, whereby the diameter of the holes is diminished with each plate and the amount of the holes is increased. In the other analytical method, the laser-diffraction measurement, the droplet sizes are determined by means of laser. The 2 important parameters which are determined during these measurements, one the one hand is the median of the diameter of all droplets, and on the other hand, the amount of droplets having a diameter of ≤5 μm. In the literature that diameter is described as a limit, under which inhaled aerosol particles arrive in fact in the lung.
It is ramblingly known, that in practice from a generated aerosol only a part is available for the patient. Thus, for determining the amount of aerosol which is available for a user, trials with a breathing simulator were carried out. For investigating the particle size and for the implementation of the breathing simulation an aerosol from an aqueous solution of the cyclic peptide of amino acid sequence SEQ ID NO:1 was used. For generating aerosol different nebulizer types were used. The nebulizers A and B were so called “Mesh-Type nebulizers”.

Structure (SMILES): C[C@@H]1NC(=O)CNC(=O)[C@H](CCC(=O)O)NC(=O)[C@@H]2CCCN2C(=O)[C@H]([C@@H](C)O)NC(=O)[C@H](CCC(=O)O)NC(=O)[C@H](CCCNC(=N)N)NC(=O)[C@H](CCC(N)=O)NC(=O)CNC(=O)[C@@H](N)CSSC[C@@H](C(=O)O)NC(=O)[C@H](Cc2ccc(O)cc2)NC(=O)[C@H](Cc2c[nH]c3ccccc23)NC(=O)[C@@H]2CCCN2C(=O)[C@H](CCCCN)NC(=O)[C@H](C)NC(=O)[C@H](CCC(=O)O)NC1=O [SEQ ID NO: 1]
- amount of droplets with a diameter of ≤5 μm in the aerosol (all nebulizers): at least 50%
- Amount of particles with Ø ≤5 μm (nebulizer Type A): 50%
- Median particle diameter of aerosol (nebulizer Type A): 4.7 μm
- Amount of particles with Ø ≤5 μm (nebulizer Type B): 70%
- Median particle diameter of aerosol (nebulizer Type B): 3.3 μm
- Amount of particles with Ø ≤5 μm (nebulizer Type C): 65%
- Median particle diameter of aerosol (nebulizer Type C): 3.7 μm
